Measurements reported in US8299056B2 (Signal Pharmaceuticals, LLC, priority 2008, dated 2012).
Where two headings read alike, the source gives them in different places.

Target: T1, Syk (Homo sapiens, UniProt P43405)
T1 construct: purchased Carna Biosciences
Experiment: Syk HTRF assay
Format: biochemical
Experimental: Test compounds were prepared at a concentration of 1.5 mM in DMSO followed by 3-fold dilutions in Greiner […] polypropylene plates. A 1:4 dilution of compounds by 8 μL/well transfer from the polypropylene plates to 24 μL/well Assay Buffer in Costar 3710 384 well black plates was then performed. Kinases (13 μL/well) or Assay Buffer only (background controls; 50 mM HEPES pH 7.6, 1 mM DTT, 10 mM MgCl2, 0.01% Triton X100, 0.01% BSA and 0.1 mM EDTA) were added to Costar 3710 384-well black plates for the HTRF assays (Carna Biosciences) and compound was added from the 1:4 dilution plate. Syk start mix (87.5 μM ATP, 80 nM Substrate Peptide (American Peptide Company 332722) was added and the mixture was incubated at room temperature for 1 hour. Syk Stop Solution (120 mM EDTA in dilution buffer) was then added to the Syk HTRF assay plate and incubated at room temperature on a shaker for 2 minutes. Syk Antibody Mix (4.86 μg/mL DyLight 647 Streptavidin (Pierce 21824); 1 μg/mL Lance Eu-Anti-Phosphotyrosine (PerkinElmer AD0069)) was added to the Syk HTRF assay plate and the mixture was further incubated at room temperature for >4 h. Time resolved fluorescence was read in assay plates on a PerkinElmer EnVision. HTRF assays were performed using 320 nm excitation, 60 μs delay, 665 nm and 615 nm emission. Data was expressed by division of 665 nm by 615 nm emissions.

[1] = IC50 activity level, read-out: Activity Level
[2] = activity levels A-D, read-out: Activity Level (IC50 in the Syk HTRF assay)
[3] = read-out: Activity Level (Syk HTRF assay IC50)

Structure (SMILES) | IC50 [2] | IC50 [3] | other results
c1ccc(Nc2nc3cccc(CC4CCNCC4)n3n2)cc1 [Example 482, N-phenyl-5-(piperidin-4-ylmethyl)-[1,2,4]triazolo[1,5-a]pyridin-2-amine] | – | – | IC50 [1]: 0.005 to 250 nM
COCc1nc2ccc(Nc3nc4cccc(NC5CCOCC5)n4n3)cc2[nH]1 [Example 142, N^2-(2-(methoxymethyl)-1H-benzo[d]imidazol-6-yl)-N^5-(tetrahydro-2H-pyran-4-yl)-[1,2,4]triazolo[1,5-a]pyridine-2,5-diamine] | – | 250 to 500 nM | –
c1cc(NC2CCCNC2)n2nc(Nc3ccc(N4CCOCC4)nc3)nc2c1 (stereo in doubt) [Example 411, (S)-N^2-(6-morpholinopyridin-3-yl)-N^5-(piperidin-3-yl)-[1,2,4]triazolo[1,5-a]pyridine-2,5-diamine] | – | – | IC50 [1]: 0.005 to 250 nM
NC(=O)c1nc2ccc(-c3cccc4nc(Nc5ccc(C(F)(F)F)cc5)nn34)cc2[nH]1 [Example 408, 6-(2-(4-(trifluoromethyl)phenylamino)-[1,2,4]triazolo[1,5-a]pyridin-5-yl)-1H-benzo[d]imidazole-2-carboxamide] | – | – | IC50 [1]: 0.005 to 250 nM
NC(=O)c1ccc(Nc2nc3cccc(NC4CCNCC4)n3n2)cc1 [Example 516, 4-(5-(piperidin-4-ylamino)-[1,2,4]triazolo[1,5-a]pyridin-2-ylamino)benzamide] | – | – | IC50 [1]: 1000 to 10000 nM
Cc1n[nH]c2cc(Nc3nc4cccc(N5CC(O)C5)n4n3)ccc12 [Example 215, 1-(2-(3-methyl-1H-indazol-6-ylamino)-[1,2,4]triazolo[1,5-a]pyridin-5-yl)azetidin-3-ol] | 0.005 to 250 nM | – | –
O=C1NCc2cc(Nc3nc4cccc(Cc5ccnc(O)c5)n4n3)ccc21 [Example 157, 5-(5-((2-hydroxypyridin-4-yl)methyl)-[1,2,4]triazolo[1,5-a]pyridin-2-ylamino)isoindolin-1-one] | – | 0.005 to 250 nM | –
O=C1CCN(Cc2cccc3nc(Nc4ccc(C(F)(F)F)cc4)nn23)CCN1 [Example 269, 1-((2-(4-(trifluoromethyl)phenylamino)-[1,2,4]triazolo[1,5-a]pyridin-5-yl)methyl)-1,4-diazepan-5-one] | 500 to 1000 nM | – | –
CN(c1cccc2nc(Nc3ccc4c(c3)NC(=O)C4(C)C)nn12)C1CCOCC1 [Example 158, 3,3-dimethyl-6-(5-(methyl(tetrahydro-2H-pyran-4-yl)amino)-[1,2,4]triazolo[1,5-a]pyridin-2-ylamino)indolin-2-one] | – | 0.005 to 250 nM | –
O[C@@H]1CCC[C@@H](Nc2cccc3nc(Nc4ccc(C(F)(F)F)cc4)nn23)C1 (single isomer, unassigned; enantiomer 2) [Example 224, cis-3-(2-(4-(trifluoromethyl)phenylamino)-[1,2,4]triazolo[1,5-a]pyridin-5-ylamino)cyclohexanol (enantiomer 2)] | 1000 to 10000 nM | – | –
NC(=O)c1ccc(Nc2nc3cccc(-c4cccc(O)c4)n3n2)cc1 [compound 64, 4-(5-(3-hydroxyphenyl)-[1,2,4]triazolo[1,5-a]pyridin-2-ylamino)benzamide] | – | 0.005 to 250 nM | –
c1ccc(Nc2nc3cccc(-c4ccccn4)n3n2)cc1 [Example 488, N-phenyl-5-(pyridin-2-yl)-[1,2,4]triazolo[1,5-a]pyridin-2-amine] | – | – | IC50 [1]: 1000 to 10000 nM
NCCNc1cc(-c2cccc3nc(Nc4ccccc4)nn23)ccn1 [Example 447, N^1-(4-(2-(phenylamino)-[1,2,4]triazolo[1,5-a]pyridin-5-yl)pyridin-2-yl)ethane-1,2-diamine] | – | – | IC50 [1]: 0.005 to 250 nM
C[C@H](CO)Nc1cccc2nc(Nc3ccc(C(F)(F)F)cc3)nn12 [Example 328, (R)-2-(2-(4-(trifluoromethyl)phenylamino)-[1,2,4]triazolo[1,5-a]pyridin-5-ylamino)propan-1-ol] | 1000 to 10000 nM | – | –
CNC(=O)c1ccc(Nc2nc3cccc(-c4cccc(CCCN)c4)n3n2)cc1 [compound 8, 4-(5-(3-(3-aminopropyl)phenyl)-[1,2,4]triazolo[1,5-a]pyridin-2-ylamino)-N-methylbenzamide] | – | 0.005 to 250 nM | –
C1=C(c2cccc3nc(Nc4ccccc4)nn23)CCNC1 [Example 513, N-phenyl-5-(1,2,3,6-tetrahydropyridin-4-yl)-[1,2,4]triazolo[1,5-a]pyridin-2-amine] | – | – | IC50 [1]: 1000 to 10000 nM
OC1CCN(c2cccc3nc(Nc4ccc(C(F)(F)F)cc4)nn23)CC1 [Example 345, 1-(2-(4-(trifluoromethyl)phenylamino)-[1,2,4]triazolo[1,5-a]pyridin-5-yl)piperidin-4-ol] | 500 to 1000 nM | – | –
CNC(=O)c1ccc(Nc2nc3cccc(N4CCCCC4)n3n2)cc1 [Example 247, N-methyl-4-(5-(piperidin-1-yl)-[1,2,4]triazolo[1,5-a]pyridin-2-ylamino)benzamide] | 500 to 1000 nM | – | –
Oc1cccc(-c2cccc3nc(Nc4ccc5cn[nH]c5c4)nn23)c1 [compound 27, 3-(2-(1H-indazol-6-ylamino)-[1,2,4]triazolo[1,5-a]pyridin-5-yl)phenol] | – | 0.005 to 250 nM | –
CNC(=O)c1ccc(Nc2nc3cccc(NC4CCC(N)CC4)n3n2)cc1 (stereo in doubt) [Example 394, trans-4-(5-(4-aminocyclohexylamino)-[1,2,4]triazolo[1,5-a]pyridin-2-ylamino)-N-methylbenzamide] | 250 to 500 nM | – | –

More lines, main results first:

IC50 [2] | IC50 [3] | Structure (SMILES) | other results
250 to 500 nM | – | Cc1cncc(Nc2nc3cccc(N[C@H]4CC[C@@H](O)CC4)n3n2)c1 [Example 390, cis-4-(2-(5-methylpyridin-3-ylamino)-[1,2,4]triazolo[1,5-a]pyridin-5-ylamino)cyclohexanol] | –
– | 0.005 to 250 nM | Cc1n[nH]c2cc(Nc3nc4cccc(N(C)CCO)n4n3)ccc12 [Example 190, 2-(methyl(2-(3-methyl-1H-indazol-6-ylamino)-[1,2,4]triazolo[1,5-a]pyridin-5-yl)amino)ethanol] | –
500 to 1000 nM | – | CNC(=O)c1ccc(Nc2nc3cccc(-c4cccnc4)n3n2)cc1 [Example 325, N-methyl-4-(5-(pyridin-3-yl)-[1,2,4]triazolo[1,5-a]pyridin-2-ylamino)benzamide] | –
– | 0.005 to 250 nM | CN(C)Cc1nc2ccc(Nc3nc4cccc(-c5ccccc5)n4n3)cc2[nH]1 [compound 31, N-(2-((dimethylamino)methyl)-1H-benzo[d]imidazol-6-yl)-5-phenyl-[1,2,4]triazolo[1,5-a]pyridin-2-amine] | –
0.005 to 250 nM | – | OC[C@]1(O)CC[C@@H](Nc2cccc3nc(Nc4ccc(C(F)(F)F)cc4)nn23)CC1 [Example 227, cis-1-(hydroxymethyl)-4-(2-(4-(trifluoromethyl)phenylamino)-[1,2,4]triazolo[1,5-a]pyridin-5-ylamino)cyclohexanol] | –
– | 0.005 to 250 nM | c1ccc(-c2cccc3nc(Nc4ccc(N5CCOCC5)nc4)nn23)cc1 [compound 41, N-(6-morpholinopyridin-3-yl)-5-phenyl-[1,2,4]triazolo[1,5-a]pyridin-2-amine] | –
250 to 500 nM | – | OC1CCN(c2cccc3nc(Nc4ccc(C(F)(F)F)cc4)nn23)C1 (stereo in doubt) [Example 333, (S)-1-(2-(4-(trifluoromethyl)phenylamino)-[1,2,4]triazolo[1,5-a]pyridin-5-yl)pyrrolidin-3-ol] | –
0.005 to 250 nM | – | CC(C)n1ncc2ccc(Nc3nc4cccc(N[C@H]5CC[C@@H](O)CC5)n4n3)cc21 [Example 243, cis-4-(2-(1-isopropyl-1H-indazol-6-ylamino)-[1,2,4]triazolo[1,5-a]pyridin-5-ylamino)cyclohexanol] | –
– | 0.005 to 250 nM | Cn1ncc2ccc(Nc3nc4cccc(NC5CCOCC5)n4n3)cc21 [Example 161, N^2-(1-methyl-1H-indazol-6-yl)-N^5-(tetrahydro-2H-pyran-4-yl)-[1,2,4]triazolo[1,5-a]pyridin-2,5-diamine] | –
0.005 to 250 nM | – | Cc1ccc(Nc2nc3cccc(-c4ccc5nc(CO)[nH]c5c4)n3n2)cn1 [Example 285, (6-(2-(6-methylpyridin-3-ylamino)-[1,2,4]triazolo[1,5-a]pyridin-5-yl)-1H-benzo[d]imidazol-2-yl)methanol] | –
0.005 to 250 nM | – | OC1CCC(Cc2cccc3nc(Nc4ccc(C(F)(F)F)cc4)nn23)CC1 (stereo in doubt) [Example 398, trans-4-((2-(4-(trifluoromethyl)phenylamino)-[1,2,4]triazolo[1,5-a]pyridin-5-yl)methyl)cyclohexanol] | –
– | 0.005 to 250 nM | Cn1cnc2ccc(Nc3nc4cccc(-c5cccc(F)c5)n4n3)cc21 [compound 4] | –
0.005 to 250 nM | – | Cc1n[nH]c2cc(Nc3nc4cccc(N[C@H]5CCCC5O)n4n3)ccc12 (stereo in doubt) [Example 212, (1S,2S)-2-(2-(3-methyl-1H-indazol-6-ylamino)-[1,2,4]triazolo[1,5-a]pyridin-5-ylamino)cyclopentanol] | –
250 to 500 nM | – | CNC(=O)c1cccc(Nc2nc3cccc(N[C@H]4CC[C@@H](O)CC4)n3n2)c1 [Example 316, cis-3-(5-(4-hydroxycyclohexylamino)-[1,2,4]triazolo[1,5-a]pyridin-2-ylamino)-N-methylbenzamide] | –
500 to 1000 nM | – | O[C@@H]1CCN(c2cccc3nc(Nc4ccc(C(F)(F)F)cc4)nn23)C1 [Example 332, (R)-1-(2-(4-(trifluoromethyl)phenylamino)-[1,2,4]triazolo[1,5-a]pyridin-5-yl)pyrrolidin-3-ol] | –
